Here are results for 3 compounds from patent publication US20020197286A1, “Method for preventing and treating skin aging” (priority 2001, published 2002).

The nature of series [1]: Multiple-dose pharmacokinetics of 1 mg NA/10 mcg EE tablets in 18 postmenopausal women. The note with it: for Tmax / Cmax / AUC(0-t) / half-life: female, human; for AUC(0-t): read-out: AUC(0-24); for half-life: read-out: t½ (converted). The class given is in vivo, human.
Series [2] in a line: Absorption and bioavailability after oral administration of femhrt ⅕ / NA/EE tablets. It is filed as in vivo. The note with it: for bioavailability: human, after oral dosing, first-pass metabolism, read-out: absolute bioavailability. Here is the method: The term “effective dose” means the amount of a progestin and an estrogen required to delay the onset or treat symptoms manifested by skin aging or acne in a particular patient. […] Norethindrone acetate and EE are rapidly absorbed from femhrt ⅕ tablets, with maximum plasma concentrations of norethindrone and EE generally occurring 1 to 2 hours postdose. […] For example, a method for preventing and treating acne in a patient in need of treatment comprising administering an effective amount of Estrostep which contains 1 mg NA and a gradually increasing dose of ethinyl estradiol; 20 mcg×5 days, 30 mcg×7 days, and 35 mcg×9 days in a pharmaceutically acceptable carrier. Other dosage forms may be administered.
Norethindrone acetate and EE are rapidly absorbed from femhrt ⅕ tablets, with maximum plasma concentrations of norethindrone and EE generally occurring 1 to 2 hours postdose. […] The extent of norethindrone absorption is increased by 27% following administration of NA/EE tablets with food.

Series [3] can be described thus: Population pharmacokinetic analysis of NA/EE tablets. The note with it: for average steady-state concentrations (Css): femhrt ⅕ (1 mg NA/5 mcg EE), estimated from population pharmacokinetic analysis. Here is the method:
However, the multiple-dose pharmacokinetics were studied at a dose of 1 mg NA/10 mcg EE in 18 postmenopausal women.

The nature of series [4]: Distribution: volume of distribution. The note with it: human, in vivo. An excerpt:
(§1) Volume of distribution of norethindrone and EE ranges from 2 to 4 L/kg. Plasma protein binding of both steroids is extensive (>95%); norethindrone binds to both albumin and SHBG, whereas EE binds only to albumin.

A further series is described as follows: Plasma protein binding. It is filed as in vitro ADME. The note with it: human.
Text: as §1

The mark [5] stands for this setting: plasma, oral, Single-Dose (Day 1), 1 mg NA/10 mcg EE tablets, Mean (SD).
Where [6] appears, read: plasma, oral, Steady-State (Day 87), 1 mg NA/10 mcg EE tablets, Mean (SD).

Each structure is given as a SMILES string. Like-named read-outs stand apart in the source and are kept apart here.

One may read the Tmax as the time from dosing to the highest level. In general, bioavailability refers to the share of a dose that reaches the circulation, judged against a reference dose that is usually intravenous. A word on the Vd: it is the apparent volume that relates the amount in the body to the concentration in plasma or blood. Higher therefore signals extensive tissue distribution. What is called fraction unbound is free concentration divided by total concentration. In the case of `C#C[C@]1(O)CC[C@H]2C3CCc4cc(O)ccc4[C@H]3CCC21C` (stereo partly drawn) [Ethinyl Estradiol], in series [1] (in vivo, Tmax), the Tmax came to 2.2 h. Besides, in series [2] (in vivo), the bioavailability was around 55% and the “effect of high fat meal on absorption” value is reported as “decreases rate but not extent”. The “average steady-state concentrations (Css)” value in series [3] is 0.0114 ng/mL. Moreover, in series [3] (in vivo), the “dose proportionality of mean steady-state plasma concentrations” value was “proportional to dose”, the “dose proportionality of steady-state concentrations” value is reported as “less than proportional increase” and the “effect of age on pharmacokinetics” value is recorded as “not affected by age”. Moreover, in series [4], the Vd was 2 to 4 L/kg. This compound also registered a fraction unbound in the series “Plasma protein binding” below 0.05.

As a reminder, the Cmax is the peak of the concentration-time curve. For `C#C[C@]1(O)CC[C@H]2[C@@H]3CCC4=CC(=O)CC[C@@H]4[C@H]3CC[C@@]21C` [Norethindrone, norethindrone], the CL/F in series [1] (Single-Dose (Day 1), 1 mg NA/10 mcg EE tablets, Mean (SD)) is given as 588 (416) mL/min; in series [1] (Steady-State (Day 87), 1 mg NA/10 mcg EE tablets, Mean (SD)), 226 (139) mL/min. The Cmax in series [1] (setting [5]) came to 6 ng/mL; in series [1] (setting [6]), 10.7 ng/mL. In addition, the AUC(0-t) in series [1] (setting [5]) turned out to be 29.7 ng·h/mL; in series [1] (setting [6]) it was 81.8 ng·h/mL. Moreover, the Tmax in series [1] (plasma, oral, Single-Dose (Day 1), 1 mg NA/10 mcg EE tablets, Mean (SD), read-out: Tmax) was 1.8 h; in series [1] (plasma, oral, Steady-State (Day 87), 1 mg NA/10 mcg EE tablets, Mean (SD), read-out: Tmax), 1.8 h. Moreover, the half-life in series [1] (setting [5]) is 10.3 h; in series [1] (setting [6]) it was 13.3 h. In addition, in series [2] (NA/EE tablets with food), the “increase of extent of absorption with food” value worked out at 27%. The bioavailability in series [2] (in vivo) was around 64%. Moreover, the “dose proportionality of mean steady-state concentrations” value in series [3] (1 mg NA/5 mcg EE and 1/10 compared to 0.5 mg NA/2.5 mcg EE tablets) is “slightly more than proportional to dose”. Besides, the “average steady-state concentrations (Css)” value in series [3] is 2.6 ng/mL. The same compound yielded a Vd in series [4] of 2 to 4 L/kg. Also, the fraction unbound in “Plasma protein binding” is below 0.05.

Consider `C#C[C@]1(OC(C)=O)CC[C@H]2C3CCC4=CC(=O)CCC4[C@H]3CCC21C` (stereo partly drawn) [NA, (17-alpha)-17-(acetyloxy)-19-norpregna-4-en-20-yn-3-one], for which the deacetylation to norethindrone result in series [2] (in vivo, po) is “completely and rapidly deacetylated”. Moreover, in series [3] (in vivo), the “effect of age on pharmacokinetics” value was “not affected by age”.
